# ChEMBL document CHEMBL1201862, “PubChem BioAssay data set” (2004)
#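 Results reflect a 48-hour exposure of cells in 96-well plates to compound at five concentrations. GI50: concentration for 50% inhibition of growth.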 The source made the active and inactive calls. Cut-off read from the data, not from the text of the source: active = GI50 up to about 1.1 µM and inactive = higher.
# Columns and labels:
# Assay in all cases: NCI anticancer screen, dose series, 48 h
# [1] = system: IGROV-1
# [2] = system: OVCAR-5
# [3] = system: K562
# [4] = system: NCI-H226
# [5] = system: TK-10
# [6] = system: OVCAR-4
# [7] = system: HCT-116
# [8] = system: SF-295
# [9] = system: MOLT-4
# [10] = system: UACC-62
# [11] = system: SK-MEL-5
# [12] = system: HCT-15
# [13] = system: Malme-3M
# [14] = system: HOP-92
# [15] = system: SR
SMILES,GI50 [1],GI50 [2],GI50 [3],GI50 [4],GI50 [5],GI50 [6],GI50 [7],GI50 [8],GI50 [9],GI50 [10],GI50 [11],GI50 [12],GI50 [13],GI50 [14],GI50 [15]
Cc1cc(C)nc(NS(=O)(=O)c2ccc(NC(=O)c3cccc4c(N)c5ccccc5nc34)cc2)n1,> 100 µM (inactive),> 100 µM (inactive),63.8 µM (inactive),> 100 µM (inactive),> 100 µM (inactive),> 100 µM (inactive),90.6 µM (inactive),> 100 µM (inactive),35 µM (inactive),> 100 µM (inactive),> 100 µM (inactive),> 100 µM,> 100 µM (inactive),,
O=C(Nc1ccc(Cl)cc1Cl)C(=O)C(C(=O)c1ccc2ccccc2c1)C1OC(=O)c2ccccc21 (stereo not given),13.6 µM (inactive),4.65 µM (inactive),,1.73 µM (inactive),,10.1 µM (inactive),5.56 µM (inactive),4.02 µM (inactive),,9.79 µM (inactive),9.73 µM (inactive),11.5 µM,> 10 µM (inactive),3.3 µM (inactive),
Cn1cccc(C(=O)c2ccccc2)c1=O,> 100 µM (inactive),> 100 µM (inactive),> 100 µM (inactive),> 100 µM (inactive),> 100 µM (inactive),> 100 µM (inactive),> 100 µM (inactive),> 100 µM (inactive),> 100 µM (inactive),> 100 µM (inactive),> 100 µM (inactive),> 100 µM,> 100 µM (inactive),> 100 µM (inactive),> 100 µM (inactive)
Cc1c(/C=N/NC(=O)c2ccc(Cl)cc2)c(=O)n(-c2ccccc2)n1C,> 100 µM (inactive),,> 100 µM (inactive),> 100 µM (inactive),> 100 µM (inactive),> 100 µM (inactive),> 100 µM (inactive),> 100 µM (inactive),> 100 µM (inactive),> 100 µM (inactive),,> 100 µM,> 100 µM (inactive),> 100 µM (inactive),> 100 µM (inactive)
NCCOc1ccc(/C(=C(/Cl)c2ccccc2)c2ccccc2)cc1,14.4 µM (inactive),16.7 µM (inactive),3.32 µM (inactive),18.7 µM (inactive),12.9 µM (inactive),13 µM (inactive),7.19 µM (inactive),14.4 µM (inactive),3.14 µM (inactive),11 µM (inactive),9.1 µM (inactive),6.55 µM,9.27 µM (inactive),5.18 µM (inactive),3.21 µM (inactive)
O=C1Cc2ccccc2CCc2ccsc21,> 100 µM (inactive),31.3 µM (inactive),> 100 µM (inactive),> 100 µM (inactive),> 100 µM (inactive),> 100 µM (inactive),> 100 µM (inactive),> 100 µM (inactive),> 100 µM (inactive),,> 100 µM (inactive),> 100 µM,> 100 µM (inactive),40 µM (inactive),> 100 µM (inactive)
CC(CN(C)C)/C(=N\Nc1ccccc1)c1ccccc1 (stereo not given),2.09 µM (inactive),1.38 µM (inactive),0.112 µM (active),,1.02 µM (active),0.794 µM (active),0.415 µM (active),0.0436 µM (active),0.184 µM (active),0.0755 µM (active),3.3 µM (inactive),0.0955 µM,10.7 µM (inactive),,0.33 µM (active)
CC(=O)CC(=O)CCCC(=O)Nc1ccc(Cl)cc1Cl,> 100 µM (inactive),> 100 µM (inactive),> 100 µM (inactive),> 100 µM (inactive),> 100 µM (inactive),> 100 µM (inactive),> 100 µM (inactive),> 100 µM (inactive),> 100 µM (inactive),> 100 µM (inactive),,> 100 µM,> 100 µM (inactive),> 100 µM (inactive),> 100 µM (inactive)
COc1ccc(S(=O)(=O)N/N=C\c2cc([N+](=O)[O-])cc(I)c2O)c(OC)c1OC,32 µM (inactive),32.4 µM (inactive),31.6 µM (inactive),17.3 µM (inactive),40.4 µM (inactive),28.4 µM (inactive),,30.6 µM (inactive),25.1 µM (inactive),21.9 µM (inactive),21.2 µM (inactive),22.3 µM,27.7 µM (inactive),13.5 µM (inactive),
Cc1ccc(S(=O)(=O)CC(=O)CC(=O)C(=O)Nc2cccc(C(F)(F)F)c2)cc1,> 100 µM (inactive),,> 100 µM (inactive),> 100 µM (inactive),> 100 µM (inactive),,44.4 µM (inactive),> 100 µM (inactive),> 100 µM (inactive),> 100 µM (inactive),> 100 µM (inactive),> 100 µM,81.3 µM (inactive),> 100 µM (inactive),> 100 µM (inactive)
COc1cc2c(cc1OC)C(C(=O)O)C(c1ccccc1)N(C)C2=O (stereo not given),> 100 µM (inactive),> 100 µM (inactive),> 100 µM (inactive),,> 100 µM (inactive),> 100 µM (inactive),> 100 µM (inactive),> 100 µM (inactive),> 100 µM (inactive),> 100 µM (inactive),> 100 µM (inactive),,> 100 µM (inactive),,
CC1=C(C(=O)Nc2ccccc2C)C(c2ccc([N+](=O)[O-])cc2)C(C(=O)Nc2ccccc2C)=C(C)N1,78 µM (inactive),> 100 µM (inactive),40.1 µM (inactive),> 100 µM (inactive),46.1 µM (inactive),41.8 µM (inactive),,58.2 µM (inactive),25.3 µM (inactive),43.9 µM (inactive),11.3 µM (inactive),56.5 µM,42.7 µM (inactive),,
CCN(CC)CCCCC1CCN(CC(=O)N2CC(C)C(=O)Nc3ccccc32)CC1 (stereo not given),> 100 µM (inactive),> 100 µM (inactive),> 100 µM (inactive),> 100 µM (inactive),,> 100 µM (inactive),> 100 µM (inactive),> 100 µM (inactive),> 100 µM (inactive),> 100 µM (inactive),> 100 µM (inactive),> 100 µM,> 100 µM (inactive),> 100 µM (inactive),> 100 µM (inactive)
CCOC(=O)C1=C(C)N(c2ccccc2)C2=C(C(=O)N(c3ccccc3)C2c2ccccc2)C1c1ccccc1 (stereo not given),> 100 µM (inactive),> 100 µM (inactive),> 100 µM (inactive),> 100 µM (inactive),> 100 µM (inactive),> 100 µM (inactive),> 100 µM (inactive),> 100 µM (inactive),> 100 µM (inactive),> 100 µM (inactive),> 100 µM (inactive),,> 100 µM (inactive),> 100 µM (inactive),> 100 µM (inactive)
O=C(Nc1ccc(Nc2ccc(NC(=O)c3ccccc3)c3c2C(=O)c2ccccc2C3=O)c2c1C(=O)c1ccccc1C2=O)c1ccccc1,> 100 µM (inactive),,> 100 µM (inactive),> 100 µM (inactive),> 100 µM (inactive),> 100 µM (inactive),> 100 µM (inactive),,> 100 µM (inactive),> 100 µM (inactive),> 100 µM (inactive),> 100 µM,> 100 µM (inactive),,> 100 µM (inactive)
O=C1C=CC(=O)C2C1Cc1ccccc1C2c1ccccc1 (stereo not given),67 µM (inactive),> 100 µM (inactive),31.6 µM (inactive),65.5 µM (inactive),74.1 µM (inactive),20.5 µM (inactive),37.6 µM (inactive),> 100 µM (inactive),32.7 µM (inactive),> 100 µM (inactive),64 µM (inactive),36.6 µM,59.4 µM (inactive),32 µM (inactive),23.7 µM (inactive)
Cc1ccc([N+]2=NC(c3ccc([N+](=O)[O-])cc3)=NN(c3ccccc3)C2)cc1,94.4 µM (inactive),> 100 µM (inactive),20.3 µM (inactive),> 100 µM (inactive),> 100 µM (inactive),17.6 µM (inactive),59.7 µM (inactive),53.3 µM (inactive),21 µM (inactive),,33.2 µM (inactive),38.6 µM,> 100 µM (inactive),,46.7 µM (inactive)
CCN(CC)CCOC(=O)/C(=C/c1ccc(OC)cc1)c1cc(OC)c(OC)c(OC)c1,6.01 µM (inactive),16.4 µM (inactive),3.29 µM (inactive),13.5 µM (inactive),20.3 µM (inactive),31.4 µM (inactive),5.45 µM (inactive),1.83 µM (inactive),24.5 µM (inactive),3.71 µM (inactive),3.26 µM (inactive),4.82 µM,10.1 µM (inactive),3.27 µM (inactive),
Cc1cc(C(=C2C=CC(=[N+](C)C)C=C2)c2ccc([N+](C)(C)C)cc2)ccc1N(C)C,12.3 µM (inactive),21.9 µM (inactive),2.07 µM (inactive),16 µM (inactive),1.57 µM (inactive),15.8 µM (inactive),3.23 µM (inactive),5.2 µM (inactive),4.28 µM (inactive),5.55 µM (inactive),11.8 µM (inactive),33 µM,15.8 µM (inactive),10.9 µM (inactive),1.62 µM (inactive)
CC(=O)Nc1ccc2c(c1)C(=O)c1ccccc1-2,> 100 µM (inactive),,> 100 µM (inactive),> 100 µM (inactive),> 100 µM (inactive),,> 100 µM (inactive),> 100 µM (inactive),> 100 µM (inactive),> 100 µM (inactive),,> 100 µM,> 100 µM (inactive),,> 100 µM (inactive)
